Data on 13 compounds can be found in US20100075960A1 (priority 2006, published 2010).

Broadly, the pIC50 is the IC50 on a negative log10 scale, so that one unit is a factor of ten. Lower therefore signals a large IC50.

One assay deals with COLO205. The experiment in a line: Inhibition of cell proliferation, COLO205. As to conditions: Homo sapiens, COLO 205; Colon; 72 h; methylene blue or CellTiter-Glo. Format: cell-based. The method, then: (§1) II. Inhibition of Cell Proliferation by PLK1 Inhibitors.
(§2) Exponentially growing cell lines of different tumor origins, cultured in appropriate media containing 10% fetal bovine serum at 37° C. in a 5% CO2 incubator were plated in 96 or 384-well plates. Twenty four hours post-plating, cells were treated with different concentrations of test compounds ranging from 20 μM to 0.04 nM. Several wells were left untreated as a control. Seventy two hours post-treatment, cell numbers were determined using different techniques; 100 μl per well of methylene blue (Sigma M9140) (0.5% in 50:50 Ethanol:water), or 10-100 μl per well of CellTiter-Glo (Promega #G7573), depending on well size. For methylene blue staining, stain was incubated at room temperature for 30 minutes before plates were rinsed and dye solubilized in 1% N-lauroyl sarcosine, sodium salt, (Sigma L5125, in PBS). Plates were read on a microplate reader, measuring the OD at 620 nm. For CellTiter-Glo, plates were incubated at room temperature for 15 minutes and the chemiluminescent signal was read on the Victor V or Envison 2100 reader.
(§3) Percent inhibition of cell growth was expressed as percent proliferation relative to 100% proliferation (control). Concentration of test compound that inhibited 50% of cell growth (IC50) was determined by 4 parameter fit of data using XLfit, (value of no cell control was substracted from all samples for background). The data are shown in Table 1 and Table 2 below and represent a compilation of several different experiments each performed using the general parameters outlined above, although minor variations may have been employed in some instances, in Table 1 and Table 2, +=IC50>1 μM; ++=IC50 0.5-1 μM: +++=IC50<0.5 μM.
(In ATP-based viability assays light output follows the ATP content of the culture.)

The next assay has as its system P388. The experiment in a line: Inhibition of cell proliferation, P388. The conditions noted are these: Mouse leukemia, 72 h, methylene blue or CellTiter-Glo. Format: cell-based. The method, then:
as §1, §2, §3

For another assay, the system named is HCT116. Nature of the assay: Inhibition of cell proliferation, HCT116. Format: cell-based. As to conditions: Homo sapiens, HCT-116; 72 h treatment; methylene blue or CellTiter-Glo.
For a further assay, the system named is MX-1. The experiment in a line: Inhibition of cell proliferation, MX-1. Format: cell-based. The conditions noted are these: Homo sapiens, MX1; Breast; 72 h; methylene blue or CellTiter-Glo. The protocol: as §1, §2, §3
The subject of another assay is HT29. The experiment in a line: Inhibition of cell proliferation, HT29. Format: cell-based. The conditions noted are these: Homo sapiens, HT-29; Colon; 72 h; methylene blue or CellTiter-Glo. The protocol: as §1, §2, §3
A further assay relates to SKOV-3. The experiment in a line: Inhibition of cell proliferation, SKOV-3. The conditions noted are these: Homo sapiens, SK-OV-3; Ovarian; 72 h; methylene blue or CellTiter-Glo. Format: cell-based. The method, then: as §1, §2, §3
The next assay concerns the target T1, PLK1 kinase domain (Homo sapiens, UniProt P53350).
T1 construct: His-tagged PLK kinase domain (amino acids 21-346 preceded by MKKGHHHHHHD); made in house; host or cells: baculovirus-infected T. ni insect cells
Nature of the assay: Assay for inhibition of PLK1 (33P SPA kinase assay). Format: biochemical. As to conditions: 2 nM PLK1 kinase domain, 1 μM ATP, 1 μM substrate peptide; read-out: PLK1 pIC50 (converted). The method, then: I. Assay for Inhibition of PLK1
A. Preparation of 6× N-Terminal His-Tagged PLK Kinase Domain
6× N-terminal His-tagged PLK kinase domain (amino acids 21-346 preceded by MKKGHHHHHHD) SEQ ID: No. 1. was prepared from baculovirus infected T. ni cells under polyhedrin promoter control. All procedures were performed at 4° C. Cells were lysed in 50 mM HEPES, 200 mM NaCl, 50 mM imidazole, 5% glycerol; pH 7.5. The homogenate was centrifuged at 14K rpm in a SLA-1500 rotor for 1 br and the supernatant filtered through a 1.2 micron filter. The supernatant was loaded onto a Nickel chelating Sepharose (Amersham Pharmacia) column and washed with lysis buffer. Protein was eluted using 20%, 30% and 100% buffer B steps where buffer B was 50 mM HEPES, 200 mM NaCl, 300 mM imidazole, 5% glycerol; pH 7.5. Fractions containing PLK were determined by SOS-PAGE. Fractions containing PLK were diluted five-fold with 50 mM HEPES, 1 mM DTT, 5% glycerol; pH 7.5, then loaded on an SP Sepharose (Amersham Pharmacia) column. After washing the column with 50 mM HEPES, 1 mM DTT, 5% glycerol; pH 7.5, PLK was step eluted with 50 mM HEPES, 1 mM DTT, 500 mM NaCl; 5% glycerol; pH 7.5. PLK was concentrated using a 10 kDa molecular weight cutoff membrane and then loaded onto a Superdex 200 gel filtration (Amersham Pharmacia) column equilibrated in 25 mM HEPES, 1 mM DTT, 500 mM NaCl, 5% glycerol; pH 7.5. Fractions containing PLK were determined by SDS-PAGE. PLK was pooled, aliquoted and stored at −80° C. Samples were quality controlled using mass spectrometry, N-terminal sequencing and amino acid analysis.
B. Enzyme Activity ± Inhibitors was Determined as Follows:
All measurements were obtained under conditions where signal production increased linearly with time and enzyme. Test compounds were added to white 384-well assay plates (0.1 μL for 10 μL and some 20 μL assays, 1 μL for some 20 μL assays) at variable known concentrations in 100% DMSO. DMSO (1-5% final, as appropriate) and EDTA (65 mM in reaction) as controls. Reaction Mix was prepared as follows at 22° C.: • 25 mM HEPES, pH 7.2 • 15 mM MgCl2 • 1 μM ATP • 0.05 μCi/well ^33P-γ ATP (10 Ci/mMol) • 1 μM substrate peptide (Biotin-Ahx-SFNDTLDFD) SEQ ID:No. 2. • 0.15 mg/mL BSA • 1 mM DTT • 2 nM PLK1 kinase domain (added last)
Reaction Mix (10 or 20 μL) was quickly added to each well immediately following addition of enzyme via automated liquid handlers and incubated 1-1.5 h at 22° C. […] Plates were sealed with dear plastic seals, spun at 500×g for 1 min or settled overnight, and counted in Packard TopCount for 30 seconds/well (regular SPA) or imaged using a Viewlux imager (LeadSeeker SPA). […]

A further assay has as its system A549-L. The experiment in a line: Inhibition of cell proliferation, A549-L. Format: cell-based. The conditions noted are these: lung; 72 h; methylene blue or CellTiter-Glo. The protocol:
as §1, §2, §3

pIC50: −log10 of the molar value.

T1 sequence (P53350 21-346): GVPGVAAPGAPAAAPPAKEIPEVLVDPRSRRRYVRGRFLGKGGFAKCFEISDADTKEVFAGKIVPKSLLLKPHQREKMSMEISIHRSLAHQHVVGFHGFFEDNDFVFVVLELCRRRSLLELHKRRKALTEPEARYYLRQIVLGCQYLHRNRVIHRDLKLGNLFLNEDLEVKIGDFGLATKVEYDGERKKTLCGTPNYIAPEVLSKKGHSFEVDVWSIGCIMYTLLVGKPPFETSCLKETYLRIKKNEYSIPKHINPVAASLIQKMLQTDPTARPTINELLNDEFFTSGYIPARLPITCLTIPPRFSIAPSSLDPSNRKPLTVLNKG

Consider `C[C@@H](Oc1cc(-n2cnc3cc(F)c(F)cc32)sc1C(N)=O)c1cccc(OC2CCN(C)CC2)c1Cl` [Example 66, 3-[((1R)-1-(2-chloro-3-[(1-methyl-4-piperidinyl)oxy]phenyl}ethyl)-oxy]-5-(5,6-difluoro-1H-benzimidazol-1-yl)-2-thiophenecarboxamide], for which the pIC50 with COLO205, in the assay on P388, in the assay with HCT116, with MX-1, in the assay with HT29 and in the assay with SKOV-3 was above 6.30 in each case.

Take `C[C@@H](Oc1cc(-n2cnc3cc(S(C)(=O)=O)ccc32)sc1C(N)=O)c1cccc(OC2CCNCC2)c1Cl` [Example 59, 3-({(1R)-1-[2-chloro-3-(4-piperidinyloxy)phenyl]ethyl}oxy)-5-[5-(methylsulfonyl)-1H-benzimidazol-1-yl]-2-thiophenecarboxamide]: in the assay with HCT116, the negative logarithm of the IC50 (pIC50) is below 6.00. In addition, the IC50 at PLK1 kinase domain was below 100 nM.

Regarding `C[C@@H](Oc1cc(-n2cnc3cc(Cl)ccc32)sc1C(N)=O)c1cccc(OC2CCN(C)CC2)c1Cl` [Example 3, 5-(5-Chloro-1H-benzimidazol-1-yl)-3-((1R)-1-{2-chloro-3-[(1-methylpiperidin-4-yl)oxy]phenyl}ethoxy)thiophene-2-carboxamide], the negative logarithm of the IC50 (pIC50) in the assay with COLO205, in the assay with P388, in the assay with HCT116, in the assay with MX-1, in the assay on HT29 and in the assay on SKOV-3 was above 6.30 in each case.

Take `Cc1cc(-c2ccc3c(c2)ncn3-c2cc(O[C@H](C)c3cccc(OC4CCNCC4)c3Cl)c(C(N)=O)s2)ccn1` [Example 49, 3-({(1R)-1-[2-Chloro-3-(4-piperidinyloxy)phenyl]ethyl}oxy)-5-[5-(2-methyl-4-pyridinyl)-1H-benzimidazol-1-yl]-2-thiophenecarboxamide]: the negative-log IC50 (pIC50) in the assay on COLO205, with HCT116, in the assay on MX-1, in the assay with HT29 and in the assay on SKOV-3 was above 6.30 in each case.

Compound `C[C@@H](Oc1cc(-n2cnc3ccc(CS(C)(=O)=O)cc32)sc1C(N)=O)c1cccc(OC[C@H]2CCCN2C)c1Cl` [Example 58, 3-({(1R)-1-[2-chloro-3-({[(2R)-1-methyl-2-pyrrolidinyl]methyl}oxy)phenyl]ethyl}oxy)-5-{6-[(methylsulfonyl)methyl]-1H-benzimidazol-1-yl}-2-thiophenecarboxamide] showed a pIC50 in the assay with HCT116 below 6.00. On PLK1 kinase domain, the IC50 is below 100 nM.

In the assay on HCT116, `CC(Oc1cc(-n2cnc3cc(-c4cnn(C)c4)ccc32)sc1C(N)=O)c1cc(OC2CCN(C)CC2)ccn1` (stereo not shown) [Example 86, 3-[(1-{4-[(1-Methyl-4-piperidinyl)oxy]-2-pyridinyl}ethyl)oxy]-5-[5-(1-methyl-1H-pyrazol-4-yl)-1H-benzimidazol-1-yl]-2-thiophenecarboxamide] gave a negative logarithm of the IC50 (pIC50) below 6.00. On PLK1 kinase domain, the IC50 was below 100 nM.

`C[C@@H](Oc1cc(-n2cnc3ccc(S(C)(=O)=O)cc32)sc1C(N)=O)c1cccc(OC2CCNCC2)c1Cl` [Example 60, 3-({(1R)-1-[2-chloro-3-(4-piperidinyloxy)phenyl]ethyl}oxy)-5-[6-(methylsulfonyl)-1H-benzimidazol-1-yl]-2-thiophenecarboxamide]: the pIC50 in the assay on HCT116 is below 6.00. For the same compound, the IC50 at PLK1 kinase domain was below 100 nM.

Consider `C[C@@H](Oc1cc(-n2cnc3cc(-c4cnn(C)c4)ccc32)sc1C(N)=O)c1cccc(OCC2CCN(C)CC2)c1Cl` [Example 45, 3-{[(1R)-1-(2-Chloro-3-{[(1-methyl-4-piperidinyl)methyl]oxy}phenyl)ethyl]oxy}-5-[5-(1-methyl-1H-pyrazol-4-yl)-1H-benzimidazol-1-yl]-2-thiophenecarboxamide], for which the pIC50 with COLO205, in the assay with P388, in the assay on HCT116, in the assay with MX-1, in the assay on HT29 and with A549-L was above 6.30 each time. In the assay on SKOV-3, this compound gave a pIC50 above 6.30.

In the assay with HCT116, `C[C@@H](Oc1cc(-n2cnc3cc(-c4cnn(C)c4)ccc32)sc1C(N)=O)c1cccc(OC2CCN(CCF)CC2)c1Cl` [Example 29, 3-{[(1R)-1-(2-Chloro-3-{[1-(2-fluoroethyl)-4-piperidinyl]oxy}phenyl)ethyl]oxy}-5-[5-(1-methyl-1H-pyrazol-4-yl)-1H-benzimidazol-1-yl]-2-thiophenecarboxamide] gave a pIC50 above 6.30.

On to `C[C@@H](Oc1cc(-n2cnc3cc(F)c(Cl)cc32)sc1C(N)=O)c1cccc(OC2CCN(C)CC2)c1Cl` [Example 70, 5-(6-Chloro-5-fluoro-1H-benzimidazol-1-yl)-3[((1R)-1-(2-chloro-3-[(1methyl-4-piperidinyl)oxy]phenyl}ethyl)oxy]-2-thiophenecarboxamide], for which the pIC50 with HCT116 is above 6.30.

Turning to `C[C@@H](Oc1cc(-n2cnc3cc(Cl)ccc32)sc1C(N)=O)c1cccc(OC2CCN(CCO)CC2)c1Cl` [Example 20, 5-(5-Chloro-1H-benzimidazol-1-yl)-3-{((1R)-1-(2-chloro-3-{[1-(2-hydroxyethyl)-4-piperidinyl]oxy}phenyl)ethyl]oxy}-2-thiophenecarboxamide], the negative-log IC50 (pIC50) in the assay on HCT116 is above 6.30.

As for `C[C@@H](Oc1cc(-n2cnc3ccc(CS(C)(=O)=O)cc32)sc1C(N)=O)c1cccc(OC2CCNCC2)c1Cl` [Example 54], the pIC50 in the assay on HCT116 is below 6.00.

The compound `Cc1nnc(-c2ccc3c(c2)ncn3-c2cc(O[C@H](C)c3cccc(OC4CCN(C)CC4)c3Cl)c(C(N)=O)s2)o1` [Example 88] showed a negative logarithm of the IC50 (pIC50) with HCT116 above 6.30.
